Measured values from patent publication US20230203058A1, “MACROCYCLIC DIAMINE DERIVATIVES AS ENT INHIBITORS FOR THE TREATMENT OF CANCERS, AND COMBINATION THEREOF WITH ADENOSINE RECEPTOR ANTAGONISTS” (ITEOS BELGIUM SA, priority 2020, published 2023).

Target: T1, human ENT1 (Homo sapiens, UniProt Q99808)
T1 sequence (Q99808 1-456): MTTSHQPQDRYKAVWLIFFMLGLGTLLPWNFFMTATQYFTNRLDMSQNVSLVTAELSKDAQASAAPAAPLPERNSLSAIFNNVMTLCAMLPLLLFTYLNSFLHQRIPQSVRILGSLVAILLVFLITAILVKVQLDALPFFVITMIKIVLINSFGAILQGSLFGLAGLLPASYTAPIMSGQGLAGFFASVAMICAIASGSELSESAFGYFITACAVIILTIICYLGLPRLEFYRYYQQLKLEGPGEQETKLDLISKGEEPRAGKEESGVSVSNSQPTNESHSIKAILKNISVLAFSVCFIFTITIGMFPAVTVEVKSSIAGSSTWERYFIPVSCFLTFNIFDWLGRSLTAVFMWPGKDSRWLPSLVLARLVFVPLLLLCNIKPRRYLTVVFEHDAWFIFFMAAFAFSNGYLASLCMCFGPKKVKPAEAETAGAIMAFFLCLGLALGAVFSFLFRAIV
Assay: ENT1 binding assay (competition with Sahenta-DY647 on JAR cells)
Parameters: JAR cells expressing ENT1 were bought from ATCC® (HTB-144TM); host or cells: JAR cells (human choriocarcinoma line; whole cells)
Details: competition with Sahenta-DY647 100 nM, 4° C.
Procedure: The present assay aims at showing that the compounds of the present invention can bind to human ENT1. The principle of the assay is a competition between the compounds of this invention and Sahenta-DY647, an ENT1 inhibitor that emits fluorescence (Ex = 630 nm, Em = 670 nm). By measuring the fluorescence at the end of the assay we could assess the binding potency of the compounds of the present invention.
JAR cells expressing ENT1 were bought from ATCC® (HTB-144TM). Cells were cultured in RPMI 1640 medium (LONZA®, #BE12-702F/U1) supplemented with 10% FBS (GIBCO®, #10270-106), 10 mM Hepes (LONZA®, #BE17-737E), 1 mM Sodium Pyruvate (LONZA®, #BE13-115E) and 2% Penicillin/Streptomycin (LONZA®, #DE17-603E) at 37° C. and 5% CO2. The assay was conducted on the following buffer: HBSS (LONZA®, #LO-527F) supplemented with 10 mM Hepes (LONZA®, #BE17-737E) and 0.1% BSA (Miltenyi®, #130-091-376) on the day of the assay. JAR cells were resuspended in the described buffer. Compounds of the present invention and Sahenta-DY647 were diluted 200X in the described buffer.
A total of 50000 cells were pre-incubated for 30 min at 4° C. with the compounds of the present invention before adding the corresponded IC90 of Sahenta-DY647 (100 nM) and incubate once more for 30 min at 4° C. The total volume of the reaction was 100 µL (50 µL of cells, 25 µL of the compounds of the present invention and 25 µL of Sahenta-DY647) in a 96 well plate, U-bottom (Greiner®, #650-180). The plates were washed 2X by centrifugation (4 min, 400 rcf at 4° C.) in the same buffer. Cells were resuspended in 70 µL of the buffer and 50 µL was transferred to a Black 384 Optiplate (PerkinElmer®, #6007279). Fluorescence (Ex = 630 nm, Em = 670 nm) was acquired on a Spectramax i3x (Molecular Devices®).

IC50 [nM]	SMILES
> 500	COc1cc(C(=O)O[C@H]2CCCOc3cccc(c3)C(=O)OCCCN3CCCN(CC2)CC3)cc(OC)c1OC (stereo in doubt) [Compound 17, (12S)-6-oxo-5,8-dioxa-1(1,4)-diazepana-7(1,3)-benzenacyclotetradecaphane-12-yl 3,4,5-trimethoxybenzoate]
> 500	O=C1NCCCN2CCCN(CC[C@@H](OC(=O)c3ccccc3)CCCOc3cccc1c3)CC2 (stereo in doubt) [Compound 19, (12S)-6-oxo-8-oxa-5-aza-1(1,4)-diazepana-7(1,3)-benzenacyclotetradecaphane-12-yl benzoate]
> 500	O=C1NCCCN2CCCN(CC[C@H](OC(=O)c3ccccc3)CCCOc3cccc1c3)CC2 (stereo in doubt) [Compound 20, (12R)-6-oxo-8-oxa-5-aza-1(1,4)-diazepana-7(1,3)-benzenacyclotetradecaphane-12-yl benzoate]
> 500	COc1cc2cc(c1OC)OCCC[C@H](O/N=C/c1ccccc1)CCN1CCCN(CCCNC2=O)CC1 (stereo in doubt) [Compound 116, (E)-benzaldehyde O-((12S)-74,75-dimethoxy-6-oxo-8-oxa-5-aza-1(1,4)-diazepana-7(1,3)-benzenacyclotetradecaphane-12-yl) oxime]
> 500	COc1cc(C(=O)NC2CCCOc3cc(cc(OC)c3OC)C(=O)OCCCN3CCCN(CC2)CC3)cc(OC)c1OC (stereo not drawn) [Compound 3, N-(74,75-dimethoxy-6-oxo-5,8-dioxa-1(1,4)-diazepana-7(1,3)-benzenacyclotetradecaphane-12-yl)-3,4,5-trimethoxybenzamide]
> 500	COc1cc(C(=O)O[C@H]2CCCOc3cc(cc(OC)c3OC)C(=O)NCCCN3CCCN(CC2)CC3)cc(OC)c1OC [Compound 9, (12S)-74,75-dimethoxy-6-oxo-8-oxa-5-aza-1(1,4)-diazepana-7(1,3)-benzenacyclotetradecaphane-12-yl 3,4,5-trimethoxybenzoate]
> 500	COc1cc(C(=O)O[C@H]2CCCOc3cc(cc(OC)c3OC)C(=O)N(C)CCCN3CCCN(CC2)CC3)cc(OC)c1OC [Compound 12, (12S)-74,75-dimethoxy-5-methyl-6-oxo-8-oxa-5-aza-1(1,4)-diazepana-7(1,3)-benzenacyclotetradecaphane-12-yl 3,4,5-trimethoxybenzoate]
> 500	COc1cc(C(=O)O[C@H]2CCCn3ncc4c(Cl)cc(cc43)C(=O)NCCCN3CCCN(CC2)CC3)cc(OC)c1OC [Compound 15, (10S)-14-chloro-2-oxo-11H-3-aza-1(6,1)-indazola-7(1,4)-diazepanacyclotridecaphane-10-yl 3,4,5-trimethoxybenzoate]
20 to 500	COc1cc(C(=O)O[C@@H]2CCCn3ncc4c(Cl)cc(cc43)C(=O)NCCCN3CCCN(CC2)CC3)cc(OC)c1OC [Compound 16, (10R)-14-chloro-2-oxo-11H-3-aza-1(6, 1)-indazola-7(1,4)-diazepanacyclotridecaphane-10-yl 3,4,5-trimethoxybenzoate]
1 to 20	COc1cc(C(=O)OC2CCCOc3cc(cc(Cl)c3Cl)C(=O)OCCCN3CCCN(CC2)CC3)cc(OC)c1OC (stereo not drawn) [Compound 21, 74,75-dichloro-6-oxo-5,8-dioxa-1(1,4)-diazepana-7(1,3)-benzenacyclotetradecaphane-12-yl 3,4,5-trimethoxybenzoate]
20 to 500	COc1cc(C(=O)O[C@H]2CCCOc3cc(cc(Cl)c3Cl)C(=O)OCCCN3CCCN(CC2)CC3)cc(OC)c1OC [Compound 22, (12S)-74,75-dichloro-6-oxo-5,8-dioxa-1(1,4)-diazepana-7(1,3)-benzenacyclotetradecaphane-12-yl 3,4,5-trimethoxybenzoate]
20 to 500	COc1cc(C(=O)O[C@@H]2CCCOc3cc(cc(Cl)c3Cl)C(=O)OCCCN3CCCN(CC2)CC3)cc(OC)c1OC [Compound 23, (12R)-74,75-dichloro-6-oxo-5,8-dioxa-1(1,4)-diazepana-7(1,3)-benzenacyclotetradecaphane-12-yl 3,4,5-trimethoxybenzoate]
20 to 500	COc1cc2cc(c1OC)OCCCC(OC(=O)c1ccc(Cl)c(Cl)c1)CCN1CCCN(CCCOC2=O)CC1 (stereo not drawn) [Compound 24, 74,75-dimethoxy-6-oxo-5,8-dioxa-1(1,4)-diazepana-7(1,3)-benzenacyclotetradecaphane-12-yl 3,4-dichlorobenzoate]
> 500	COc1cc(C(=O)O[C@H]2CCCn3cc4c(Cl)cc(cc4n3)C(=O)NCCCN3CCCN(CC2)CC3)cc(OC)c1OC [Compound 25, (11Z, 16E, 10S)-14-chloro-2-oxo-12 H-3-aza-1(6,2)-indazola-7(1,4)-diazepanacyclotridecaphane-10-yl 3,4,5-trimethoxybenzoate]
> 500	COc1cc(C(=O)O[C@@H]2CCCn3cc4c(Cl)cc(cc4n3)C(=O)NCCCN3CCCN(CC2)CC3)cc(OC)c1OC [Compound 26, (11Z, 16E, 10R)-14-chloro-2-oxo-12H-3-aza-1(6,2)-indazola-7(1,4)-diazepanacyclotridecaphane-10-yl 3,4,5-trimethoxybenzoate]
1 to 20	COc1cc2cc(c1OC)OCCCC(OC(=O)c1ccc(F)c(Cl)c1)CCN1CCCN(CCCOC2=O)CC1 (stereo not drawn) [Compound 27, 74,75-dimethoxy-6-oxo-5,8-dioxa-1(1,4)-diazepana-7(1,3)-benzenacyclotetradecaphane-12-yl 3-chloro-4-fluorobenzoate]
1 to 20	COc1cc(C(=O)O[C@@H]2CCCOc3cc(cc(Cl)c3C(N)=O)C(=O)NCCCN3CCCN(CC2)CC3)cc(OC)c1OC [Compound 28, (12R)-74-carbamoyl-75-chloro-6-oxo-8-oxa-5-aza-1(1,4)-diazepana-7(1,3)-benzenacyclotetradecaphane-12-yl 3,4,5-trimethoxybenzoate]
1 to 20	COc1cc2cc(c1OC)OCCCC(OC(=O)c1ccc(F)cc1)CCN1CCCN(CCCOC2=O)CC1 (stereo not drawn) [Compound 29, 74,75-dimethoxy-6-oxo-5,8-dioxa-1(1,4)-diazepana-7(1,3)-benzenacyclotetradecaphane-12-yl 4-fluorobenzoate]
20 to 500	COc1cc2cc(c1OC)OCCCC(OC(=O)c1ccc(OC(F)(F)F)cc1)CCN1CCCN(CCCOC2=O)CC1 (stereo not drawn) [Compound 30, 74,75-dimethoxy-6-oxo-5,8-dioxa-1(1,4)-diazepana-7(1,3)-benzenacyclotetradecaphane-12-yl 4-(trifluoromethoxy)benzoate]
1 to 20	COc1cc2cc(c1OC)OCCC[C@@H](OC(=O)c1ccccc1)CCN1CCCN(CCCOC2=O)CC1 [Compound 31, (12R)-74,75-dimethoxy-6-oxo-5,8-dioxa-1(1,4)-diazepana-7(1,3)-benzenacyclotetradecaphane-12-yl benzoate]
1 to 20	COc1cc(C(=O)O[C@@H]2CCCOc3cc(cc(OC)c3OC)C(=O)OCCCC3CCN(CC3)CC2)cc(OC)c1OC [Compound 34, (R)-74,75-dimethoxy-6-oxo-5,8-dioxa-1(4,1)-piperidina-7(1,3)-benzenacyclotetradecaphane-12-yl 3,4,5-trimethoxybenzoate]
1 to 20	COc1cc2cc(c1OC)OCCC[C@@H](OC(=O)c1ccccc1)CCN(C)CCN(C)CCCOC2=O [Compound 35, (R)-15,16-dimethoxy-9,12-dimethyl-17-oxo-2,16-dioxa-9,12-diaza-1(1,3)-benzenacycloheptadecaphane-6-yl benzoate]
> 500	COc1cc2cc(c1OC)OCCCC(O)CCN1CCCN(CCCOC2=O)CC1 (stereo not drawn) [Compound 38, 12-hydroxy-74,75-dimethoxy-5,8-dioxa-1(1,4)-diazepana-7(1,3)-benzenacyclotetradecaphan-6-one]
> 500	COc1cc2cc(c1OC)OCCC[C@H](O)CCN1CCCN(CCCOC2=O)CC1 [Compound 40, (12S)-12-hydroxy-74,75-dimethoxy-5,8-dioxa-1(1,4)-diazepana-7(1,3)-benzenacyclotetradecaphan-6-one]
